System: C57bl/6J Mice
Experiment: GPR120 C57bl6 Mouse IPGTT
Assay type: in vivo
Conditions: 30.0 mg/kg, dosed 30 minutes prior to glucose (IP 1.5 g/kg)
Protocol: Male, C57bl/6J Mice were ordered in at 8 weeks of age from Jackson Labs. Individual mice weighed anywhere in the range of 25-30 grams on study day. The mice were fasted, with removal of food occurring at 7 am on the morning of the study. Animals were moved into the room at 10:00 am, to give them time to acclimate. Glucose (insulin syringes) was drawn up either the night before or the morning of the study. Glucose was dosed (IP) at 1.5 g/kg at 7.5 ml/kg (20% glucose straight TEKNOVA, 250 ml sterile bottle w/ catalogue number G0525). Test compounds were kept spinning and were only drawn into the syringes prior to study commencement. Animals were bled via tail snip to determine basal glucose levels prior to dosing of treatments. An Ascensia BREEZE Blood Glucose Monitoring System by Bayer (using unique 10-test disks) was used for determining glucose levels. The bleeds started at approximately 12:45 pm and dosing started, at 1-minute intervals, immediately after. All groups were dosed 30 minutes prior to glucose administration at a dose volume of 10 ml/kg (the dose volume was calculated separately for each individual animal). Thirty minutes after the first dose animals were bled again for a second baseline, or T=0, and immediately dosed with glucose via an i.p. injection. The exact dose volume for glucose was also calculated separately for each individual animal. […]

## Cc1c(CCC(=O)O)ccc(OCc2cccn2-c2ccc(Cl)cc2)c1C [Compound 1, 3-(4-{[1-(4-Chlorophenyl)-1H-pyrrol-2-yl]methoxy}-2,3-dimethylphenyl)propanoic acid]
  GPR120 C57bl6 Mouse IPGTT Results: not different

Reference: patent US9045454B2, “Bicyclic pyrrole derivatives useful as agonists of GPR120” (Janssen Pharmaceutica NV, priority 2013, dated 2015)
